pIC50: −log10 of the molar value.

Results on nine molecules are retold here after patent US4876359A, “Novel gamma-butyrolactone derivatives” (SS Pharmaceutical Co., Ltd., priority 1986, dated 1989).

For one assay, the target named is T1, Angiotensin Converting Enzyme (ACE) (Oryctolagus cuniculus, UniProt P12822).
T1 construct: Lyophilized powder (1 g) of rabbit lungs (product of Pel-Freez Biologicals Company) was extracted; tissue Pel-Freez Biologicals Company; host or cells: rabbit lungs, lyophilized powder; 40,000 g supernatant of a phosphate buffer extract
T1 sequence (P12822 34-1310): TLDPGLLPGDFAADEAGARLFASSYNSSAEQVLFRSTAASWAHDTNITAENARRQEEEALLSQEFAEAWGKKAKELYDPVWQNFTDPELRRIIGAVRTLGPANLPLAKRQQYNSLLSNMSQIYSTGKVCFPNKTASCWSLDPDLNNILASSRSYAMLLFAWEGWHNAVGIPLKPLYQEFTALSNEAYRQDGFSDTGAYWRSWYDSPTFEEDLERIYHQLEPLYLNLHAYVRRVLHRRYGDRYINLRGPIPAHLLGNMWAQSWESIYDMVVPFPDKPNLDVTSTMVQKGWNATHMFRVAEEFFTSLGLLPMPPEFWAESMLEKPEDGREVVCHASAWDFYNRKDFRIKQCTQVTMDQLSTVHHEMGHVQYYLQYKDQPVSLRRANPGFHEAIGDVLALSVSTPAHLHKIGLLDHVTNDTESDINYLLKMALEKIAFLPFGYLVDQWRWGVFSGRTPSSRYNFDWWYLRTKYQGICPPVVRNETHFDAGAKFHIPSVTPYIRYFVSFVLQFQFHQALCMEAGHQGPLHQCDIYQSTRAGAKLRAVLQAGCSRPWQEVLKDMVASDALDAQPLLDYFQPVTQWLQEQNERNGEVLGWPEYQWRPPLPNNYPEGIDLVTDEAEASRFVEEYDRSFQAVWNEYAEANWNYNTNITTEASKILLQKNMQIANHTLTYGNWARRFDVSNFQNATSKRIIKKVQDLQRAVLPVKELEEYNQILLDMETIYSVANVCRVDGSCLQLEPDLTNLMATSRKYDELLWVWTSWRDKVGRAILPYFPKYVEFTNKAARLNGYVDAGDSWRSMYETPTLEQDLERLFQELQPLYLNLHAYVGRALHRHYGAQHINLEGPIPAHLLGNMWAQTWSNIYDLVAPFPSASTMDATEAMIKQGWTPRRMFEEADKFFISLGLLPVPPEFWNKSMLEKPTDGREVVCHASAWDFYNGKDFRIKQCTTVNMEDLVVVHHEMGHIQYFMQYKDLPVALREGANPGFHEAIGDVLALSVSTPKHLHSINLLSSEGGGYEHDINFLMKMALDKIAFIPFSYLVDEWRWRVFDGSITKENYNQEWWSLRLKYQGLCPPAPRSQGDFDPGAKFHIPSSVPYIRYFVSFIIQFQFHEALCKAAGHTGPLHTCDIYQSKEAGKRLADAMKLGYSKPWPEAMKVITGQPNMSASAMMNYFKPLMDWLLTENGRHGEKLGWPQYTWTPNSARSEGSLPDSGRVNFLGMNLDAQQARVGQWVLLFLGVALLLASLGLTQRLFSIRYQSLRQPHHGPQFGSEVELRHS
Kind of assay: ACE inhibitory activity after incubation in rat plasma (Method 2). The assay is classed as biochemical, rabbit. The settings on record: pre-incubated in rat plasma at 37° C. for 1 hour, dihydrochlorides, read-out: ACE inhibitory activity concentration (IC50). On the procedure:
(§1) The ACE inhibitory activities of the certain compounds (I) of this invention were determined by measuring their ACE activities in accordance with the method reported by Neels et al. [Clinical Chemistry, 29, 1399 (1983)].
(§2) Lyophilized powder (1 g) of rabbit lungs (product of Pel-Freez Biologicals Company) was extracted with 10 ml of a 50 mM buffer of potassium phosphate (pH 8.3) and a centrifugation supernatant (40,000 g×40 minutes) was used as an enzyme solution. Each test compound was dissolved at a concentration of 1 mg/ml in water, methanol or dimethyl sulfoxide depending on its solubility, followed by dilution with water to provide test solutions.
(§3) Added to 10 μl of each of the test solutions of various concentrations was 100 μl of a mixed reactant (pH 8.3) containing 50 mM of N-2-hydroxyethylpiperazine-N'-2-ethanesulfonic acid (HEPES), 300 mM of NaCl, 400 mM of Na2 SO4 and 30 mM of hippurylglycylglycine, followed by an addition of 10 μl of the enzyme solution to conduct a reaction at 37° C. for 30 minutes. To the reaction mixture, 100 μl of a sodium tungstate solution (100 g/l) and 100 μl of 0.33M sulfuric acid were added to terminate the reaction, followed by a further addition of 1 ml of water. The resultant mixture was centrifuged to collect 750 μl of a supernatant, to which 1 ml of a 100 mM borate buffer (pH 9.6) was added. Added further was 50 μl of a 60 mM solution of sodium 2,4,6-tri-nitrobenzenesulfonate. After warming the mixture at 37° C. for 15 minutes, its absorbance was measured at 420 nm. The inhibition rates at the various concentrations were calculated and IC50 was then determined by a method known per se in the art.
Mixed to 1800 μl of rat plasma was 200 μl of each test solution, followed by incubation at 37° C. for 1 hour. The resulting mixture was then diluted with a 0.1M Tris-HCl buffer (pH 8.3). The procedure of Method 1 was thereafter followed to measure the ACE inhibitory activity.
As for `CCCCCCC1CC(N[C@@H](CCCCN)C(=O)N2CCC[C@H]2C(=O)O)C(=O)O1` (single isomer, unassigned) [Compound 35, N^α -(2-oxo-5-hexyl-3-tetrahydrofuranyl)-L-lysyl-L-proline], the pIC50 is 8.33.
`CCCCC1CC(N[C@@H](CCCCN)C(=O)N2CCC[C@H]2C(=O)O)C(=O)O1` (single isomer, unassigned) [Compound 37, N^α -(2-oxo-5-butyl-3-tetrahydrofuranyl)-L-lysyl-L-proline]: the pIC50 was 8.24.
As to `CCCCCC1CC(N[C@@H](CCCCN)C(=O)N2CCC[C@H]2C(=O)O)C(=O)O1` (single isomer, unassigned) [Compound 38, N^α -(2-oxo-5-pentyl-3-tetrahydrofuranyl)-L-lysyl-L-proline], the pIC50 is 8.40.

In a further assay the target is T1, Angiotensin Converting Enzyme (ACE). Kind of assay: ACE inhibitory activity (Method 1, rabbit lung enzyme, hippurylglycylglycine). Type of assay: biochemical. The following applies: pH 8.3, 37° C., 30 minutes, hydrochlorides, read-out: ACE inhibitory activity concentration (IC50). On the procedure:
as §1, §2, §3
`CCCCCCC1CC(N[C@@H](C)C(=O)N2CCC[C@H]2C(=O)O)C(=O)O1` (single isomer, unassigned) [Compound 14, N-(2-oxo-5-hexyl-3-tetrahydrofuranyl)-L-alanyl-L-proline]: the pIC50 is 8.15.
In the case of `CCCCCC1CC(N[C@@H](C)C(=O)N2CCC[C@H]2C(=O)O)C(=O)O1` (single isomer, unassigned) [Compound 19, N-(2-oxo-5-pentyl-3-tetrahydrofuranyl)-L-alanyl-L-proline], the pIC50 is 8.14.
As to `CCCCCCCC1CC(N[C@@H](C)C(=O)N2CCC[C@H]2C(=O)O)C(=O)O1` (single isomer, unassigned) [Compound 20, N-(2-oxo-5-heptyl-3-tetrahydrofuranyl)-L-alanyl-L-proline], the pIC50 is 8.24.
Same read-out and setting: as for `CCCCCCCCC1CC(N[C@@H](C)C(=O)N2CCC[C@H]2C(=O)O)C(=O)O1` (single isomer, unassigned) [Compound 21, N-(2-oxo-5-octyl-3-tetrahydrofuranyl)-L-alanyl-L-proline], the figure is 8.54; as for `CCCCCCCCCCC1CC(N[C@@H](C)C(=O)N2CCC[C@H]2C(=O)O)C(=O)O1` (single isomer, unassigned) [Compound 22, N-(2-oxo-5-decanyl-3-tetrahydrofuranyl)-L-alanyl-L-proline], 8.52.
Regarding `C[C@H](N[C@H]1CC(c2ccccc2)OC1=O)C(=O)N1CCC[C@H]1C(=O)O` (stereo partly drawn) [Comparative compound, reference compound], the pIC50 was 7.85.
